Results from patent publication US8741934B2, “Inhibitors of ion channels” (Pfizer Limited, priority 2007, dated 2014).

Biological target: T1, hSCN3A sodium channels (Homo sapiens, UniProt Q9NY46)
T1 construct: expressed in transfected cells
Assay: hSCN3A electrophysiology, whole-cell patch-clamp or PatchXpress 7000, estimated IC-50 (Table B)
Assay type: cell-based
Details: estimated IC-50; hSCN3A cells, whole-cell patch-clamp or PatchXpress 7000; read-out: SCN3A EIC-50
Procedure, shortened: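 A 20 msec test pulse to 0 mV followed an 8 sec conditioning prepulse at each cell's measured V1/2. Room-temperature (22-24° C) recordings on HEK cells stably expressing the channel, conventional or PatchXpress.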

T1 sequence (Q9NY46 whole entry): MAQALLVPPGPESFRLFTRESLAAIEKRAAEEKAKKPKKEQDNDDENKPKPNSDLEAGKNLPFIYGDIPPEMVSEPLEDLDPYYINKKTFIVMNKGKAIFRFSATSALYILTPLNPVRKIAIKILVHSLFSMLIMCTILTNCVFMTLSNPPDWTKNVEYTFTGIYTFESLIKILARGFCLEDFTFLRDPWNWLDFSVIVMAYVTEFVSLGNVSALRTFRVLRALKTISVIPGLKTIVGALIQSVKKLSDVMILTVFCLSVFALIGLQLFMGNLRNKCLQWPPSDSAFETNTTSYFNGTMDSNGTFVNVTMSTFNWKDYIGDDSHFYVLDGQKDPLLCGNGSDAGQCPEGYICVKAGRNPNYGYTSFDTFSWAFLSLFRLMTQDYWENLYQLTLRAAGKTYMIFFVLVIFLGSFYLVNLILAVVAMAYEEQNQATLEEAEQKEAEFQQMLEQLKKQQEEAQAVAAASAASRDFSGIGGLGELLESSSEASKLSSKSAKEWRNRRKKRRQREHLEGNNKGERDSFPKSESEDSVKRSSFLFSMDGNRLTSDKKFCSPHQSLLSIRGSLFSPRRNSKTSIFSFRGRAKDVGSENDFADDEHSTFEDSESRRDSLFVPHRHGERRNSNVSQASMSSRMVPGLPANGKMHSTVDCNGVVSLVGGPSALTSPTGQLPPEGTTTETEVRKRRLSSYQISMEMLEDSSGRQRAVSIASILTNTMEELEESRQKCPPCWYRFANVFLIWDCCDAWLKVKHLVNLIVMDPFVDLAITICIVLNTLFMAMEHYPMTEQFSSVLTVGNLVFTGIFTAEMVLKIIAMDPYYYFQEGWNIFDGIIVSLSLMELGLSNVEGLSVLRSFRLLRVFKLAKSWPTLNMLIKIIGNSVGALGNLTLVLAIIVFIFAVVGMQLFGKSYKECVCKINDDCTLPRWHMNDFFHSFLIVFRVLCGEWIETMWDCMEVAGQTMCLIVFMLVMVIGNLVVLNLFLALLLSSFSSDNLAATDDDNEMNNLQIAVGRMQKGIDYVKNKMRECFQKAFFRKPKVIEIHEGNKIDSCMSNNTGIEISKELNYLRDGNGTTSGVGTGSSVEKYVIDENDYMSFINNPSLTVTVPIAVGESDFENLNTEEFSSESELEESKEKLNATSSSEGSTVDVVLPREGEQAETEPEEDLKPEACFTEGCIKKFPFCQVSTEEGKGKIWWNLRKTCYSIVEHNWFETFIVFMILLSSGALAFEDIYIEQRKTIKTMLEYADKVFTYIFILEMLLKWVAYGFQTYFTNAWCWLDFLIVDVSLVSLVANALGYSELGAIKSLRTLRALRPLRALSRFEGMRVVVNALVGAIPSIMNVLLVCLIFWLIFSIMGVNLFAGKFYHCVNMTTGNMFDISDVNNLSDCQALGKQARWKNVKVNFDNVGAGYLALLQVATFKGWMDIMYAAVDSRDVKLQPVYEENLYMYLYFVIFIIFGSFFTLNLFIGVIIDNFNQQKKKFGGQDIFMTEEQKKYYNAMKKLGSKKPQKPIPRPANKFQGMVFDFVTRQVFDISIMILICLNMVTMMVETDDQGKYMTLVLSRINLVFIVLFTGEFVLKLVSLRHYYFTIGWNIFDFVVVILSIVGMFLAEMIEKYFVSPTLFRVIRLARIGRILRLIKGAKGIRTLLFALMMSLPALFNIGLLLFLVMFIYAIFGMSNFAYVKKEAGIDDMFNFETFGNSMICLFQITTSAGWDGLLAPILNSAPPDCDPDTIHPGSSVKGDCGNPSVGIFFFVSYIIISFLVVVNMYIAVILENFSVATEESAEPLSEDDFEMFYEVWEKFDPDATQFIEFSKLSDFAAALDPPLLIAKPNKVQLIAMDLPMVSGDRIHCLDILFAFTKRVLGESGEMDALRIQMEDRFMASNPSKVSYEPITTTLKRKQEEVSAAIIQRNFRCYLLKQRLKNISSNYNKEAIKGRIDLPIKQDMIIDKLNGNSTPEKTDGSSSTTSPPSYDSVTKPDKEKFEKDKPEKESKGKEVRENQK

Row | Compound | IC50
1 | O=C(NCc1cccs1)c1ccc(S(=O)(=O)Nc2nccs2)cc1 [Example 386, 4-[(1,3-Thiazol-2-ylamino)sulfonyl]-N-(2-thienylmethyl)benzamide] | 3410 nM
2 | O=C(NCc1ccc(F)c(OC(F)(F)F)c1)c1ccc(S(=O)(=O)Nc2nccs2)cc1F [Example 331, 2-Fluoro-N-[4-fluoro-3-(trifluoromethoxy)benzyl]-4-[(1,3-thiazol-2-ylamino)sulfonyl] benzamide] | 900 nM
3 | O=C(NCc1ccc(Cl)c(F)c1)c1ccc(S(=O)(=O)Nc2ncc(Cl)s2)cc1 [Example 37, N-(4-Chloro-3-fluorobenzyl)-4-{[(5-chloro-1,3-thiazol-2-yl)amino]sulfonyl}benzamide] | 70 nM
4 | O=C(c1ccc(S(=O)(=O)Nc2nccs2)cc1)N1CCO[C@@H]2Cc3ccccc3[C@@H]21 [Example 53, 4-[(4aS,9aR)-2,3,9,9a-tetrahydroindeno[2,1-b][1,4]oxazin-4(4aH)-ylcarbonyl]-N-1,3-thiazol-2-ylbenzenesulfonamide] | 2860 nM
5 | O=C(c1ccc(S(=O)(=O)Nc2nccs2)cc1)N1CCCC(Oc2ccccc2)C1 (stereo not shown) [Example 277, 4-[(3-Phenoxypiperidin-1-yl)carbonyl]-N-1,3-thiazol-2-yl-benzenesulfonamide] | 2190 nM
6 | O=C(NCc1ccc(C(F)(F)F)cc1)c1ccc(S(=O)(=O)Nc2nccs2)c(Cl)c1 [Example 287, 3-Chloro-4-[(1,3-thiazol-2-ylamino)sulfonyl]-N-[4-(trifluoromethyl)benzyl]benzamide] | 220 nM
7 | O=C(NCc1ccc(F)c(C(F)(F)F)c1)c1ccc(S(=O)(=O)Nc2ncc(Cl)s2)cc1 [Example 34, 4-{[(5-Chloro-1,3-thiazol-2-yl)amino]sulfonyl}-N-[4-fluoro-3-(trifluoromethyl)benzyl]benzamide] | 90 nM
8 | O=C(NCc1ccc(OC(F)(F)F)c(F)c1)c1ccc(S(=O)(=O)Nc2ncc(Cl)s2)cc1F [Example 359, 4-{[(5-Chloro-1,3-thiazol-2-yl)amino]sulfonyl}-2-fluoro-N-[3-fluoro-4-(trifluoromethoxy)benzyl]benzamide] | 170 nM
9 | O=C(NCc1cc(F)cc(F)c1)c1ccc(S(=O)(=O)Nc2nccs2)cc1 [Example 83, N-(3,5-difluorobenzyl)-4-[(1,3-thiazol-2-ylamino)sulfonyl]benzamide] | 620 nM
10 | O=C(c1ccc(S(=O)(=O)Nc2nccs2)cc1)N(Cc1ccccc1)[C@H]1CCCC[C@H]1CO [Example 245, N-benzyl-N-[(1S,2R)-2-(hydroxymethyl)cyclohexyl]-4-[(1,3-thiazol-2-ylamino)sulfonyl]benzamide] | 2220 nM
11 | O=C(NCc1cccc(C(F)(F)F)c1F)c1ccc(S(=O)(=O)Nc2ncc(Cl)s2)cc1 [Example 40, 4-{[(5-Chloro-1,3-thiazol-2-yl)amino]sulfonyl}-N-[2-fluoro-3-(trifluoromethyl)benzyl]benzamide] | 210 nM
12 | O=C(NC1Cc2ccccc2C1)c1ccc(S(=O)(=O)Nc2nccs2)cc1 [Example 173, N-(2,3-dihydro-1H-inden-2-yl)-4-[(1,3-thiazol-2-ylamino)sulfonyl]benzamide] | 2670 nM
13 | O=C(NCc1ccc(OC(F)(F)F)cc1)c1ccc(S(=O)(=O)Nc2nccs2)cc1 [Example 402, 4-[(1,3-Thiazol-2-ylamino)sulfonyl]-N-[4-(trifluoromethoxy)benzyl]benzamide] | 190 nM
14 | O=C(NCc1ccc(F)c(OC(F)(F)F)c1)c1ccc(S(=O)(=O)Nc2nccs2)c(F)c1 [Example 300, 3-Fluoro-N-[4-fluoro-3-(trifluoromethoxy)benzyl]-4-[(1,3-thiazol-2-ylamino)sulfonyl]benzamide] | 130 nM
15 | O=C(Nc1nccc2ccccc12)c1ccc(S(=O)(=O)Nc2nccs2)cc1 [Example 117, N-isoquinolin-1-yl-4-[(1,3-thiazol-2-ylamino)sulfonyl]benzamide] | 12700 nM
16 | O=C(NCc1ccc(C(F)(F)F)c(Cl)c1)c1ccc(S(=O)(=O)Nc2nccs2)cc1 [Example 396, N-[3-chloro-4-(trifluoromethyl)benzyl]-4-[(1,3-thiazol-2-ylamino)sulfonyl] benzamide] | 30 nM
17 | O=C(NCc1ccc(F)c(OC(F)(F)F)c1)c1ccc(S(=O)(=O)Nc2nccs2)c(Cl)c1 [Example 293, 3-Chloro-N-[4-fluoro-3-(trifluoromethoxy)benzyl]-4-[(1,3-thiazol-2-yl-amino)sulfonyl]benzamide] | 2320 nM
18 | O=C(NCc1ccc(F)c(C(F)(F)F)c1)c1ccc(S(=O)(=O)Nc2ncc(Cl)s2)c(F)c1 [Example 316, 4-{[(5-Chloro-1,3-thiazol-2-yl)amino]sulfonyl}-3-fluoro-N-[4-fluoro-3-(trifluoromethyl)benzyl] benzamide] | 140 nM
19 | O=C(NCc1ccc(C(F)(F)F)cc1)c1ccc(S(=O)(=O)Nc2ncc(Cl)s2)cc1Cl [Example 338, 2-Chloro-4-{[(5-chloro-1,3-thiazol-2-yl)amino]sulfonyl}-N-[4-(trifluoromethyl)benzyl] benzamide] | 1070 nM
20 | O=C(NCc1cccc(C(F)(F)F)c1)c1ccc(S(=O)(=O)Nc2ncc(Cl)s2)cc1 [Example 28, 4-{[(5-Chloro-1,3-thiazol-2-yl)amino]sulfonyl}-N-[3-(trifluoromethyl)benzyl]benzamide] | 240 nM
21 | COC(=O)c1csc(NS(=O)(=O)c2ccc(C(=O)NCc3ccc(C(F)(F)F)cc3)cc2)n1 [Example 17, Methyl 2-({[4-({[4-(trifluoromethyl)benzyl]amino}carbonyl)phenyl]sulfonyl}amino)-1,3-thiazole-4-carboxylate] | 2940 nM
22 | O=C(NCc1ccc(C(F)(F)F)cc1)c1ccc(S(=O)(=O)Nc2nccs2)c(F)c1 [Example 303, 3-Fluoro-4-[(1,3-thiazol-2-ylamino)sulfonyl]-N-[4-(trifluoromethyl)benzyl]benzamide] | 140 nM
23 | O=C(NCc1ccc(OC(F)(F)F)c(Cl)c1)c1ccc(S(=O)(=O)Nc2ncns2)cc1Cl [Example 378, 2-Chloro-N-[3-chloro-4-(trifluoromethoxy)benzyl]-4-[(1,2,4-thiadiazol-5-ylamino)sulfonyl] benzamide] | 180 nM
24 | O=C(NCc1ccc(C(F)(F)F)c(F)c1)c1ccc(S(=O)(=O)Nc2ncns2)c(F)c1 [Example 319, 3-Fluoro-N-[3-fluoro-4-(trifluoromethyl)benzyl]-4-[(1,2,4-thiadiazol-5-ylamino)sulfonyl]benzamide] | 70 nM
25 | O=C(NCc1ccc(OC(F)(F)F)cc1)c1ccc(S(=O)(=O)Nc2nccs2)c(F)c1 [Example 301, 3-Fluoro-4-[(1,3-thiazol-2-ylamino)sulfonyl]-N-[4-(trifluoromethoxy)benzyl]benzamide] | 180 nM
26 | O=C(NCc1ccc(OC(F)(F)F)cc1)c1ccc(S(=O)(=O)Nc2nccs2)c(Cl)c1 [Example 284, 3-Chloro-4-[(1,3-thiazol-2-ylamino)sulfonyl]-N-[4-(trifluoromethoxy)benzyl]benzamide] | 1220 nM
27 | Cc1cnc(NS(=O)(=O)c2ccc(C(=O)NCc3ccc(C(F)(F)F)cc3)cc2)s1 [Example 22, 4-{[(5-methyl-1,3-thiazol-2-yl)amino]sulfonyl}-N-[4-(trifluoromethyl)benzyl] benzamide] | 950 nM
28 | Cc1cc(NS(=O)(=O)c2ccc(C(=O)NCc3ccc(C(F)(F)F)cc3)cc2)no1 [Example 18, 4-{[(5-Methylisoxazol-3-yl)amino]sulofnyl}-N-[4-(trifluoromethyl)benzyl]benzamide] | 2260 nM
